# Assays:
# [1] = test system: Human pleural mesothelioma cells NCI-H226; assay: Proliferation inhibition assay of human pleural mesothelioma cells NCI-H226 (CCK8); format: cell-based; conditions: 72 h, 3 days incubation
# Text: Experimental Example 1 Cell Anti-Proliferation Test
# Proliferation Inhibition Assay of Human Pleural Mesothelioma Cells NCI-H226 by YAP-TEAD Inhibitor Compounds
# Experimental materials and equipment: Human pleural mesothelioma cells NCI-H226 were purchased from Nanjing Cobioer Biosciences CO., LTD. RPMI-1640 medium (Bio-Channel), DMSO (dimethyl sulfoxide), CCK8 (WST-8) cell analysis kit (Beyotime), 0.25% EDTA-Tripsin (trypsin solution), 1×PBS (phosphate buffer, PH7.2), 96-well plate (Corning), fetal bovine serum (FBS), 10,000 U/mL penicillin-G/streptomycin, high-speed cryo-centrifuge (EPPENDORF 5810R), enzyme-linked immunoassay (Tecan Spark).
# • A) Tumor cells were cultured in RPMI-1640 (containing 10% FBS and 100 U/mL penicillin-G/streptomycin) at 37° C., 5% CO^2 and saturated humidity until 80-90% density. • B) Removed the culture medium from 10 cm Petri dishes; • C) Rinsed the cells once with 10 ml 1×PBS; • D) Added 4 ml 0.25% EDTA-Tripsin into 37° C., 5% CO^2 incubator for trypsin digestion for 5 minutes, transferred to 15 ml centrifuge tube, centrifuged at 200 g for 5 minutes, discarded the supernatant to get cell precipitate; • E) Resuspend with 4 ml DMEM medium, count and adjust to 10,000 cells/ml. • F) Added cell suspension to 96-well plate with 100 μL per well volume and incubate overnight at 37° C., 5% CO^2 incubator.
# • A) Preparation of gradient dilution solution of tested compounds: the test compounds were configured into 1 mM reservoir solution. Then 1.5 μl of the reservoir solution was dissolved in 1.5 ml of DMSO-free culture solution, and then a 3-fold serial gradient dilution was performed with 0.1% DMSO culture solution for a total of 9 concentrations, and the concentrations of the compounds after dilution were as follows: • 333.33 nM, 111.11 nM, 37.03 nM, 12.35 nM, 4.15 nM, 1.37 nM, 0.46 nM, 0.15 nM • B) After thorough mixing, 100 μL of culture compound solution was taken separately to replace the culture solution in the cell culture plate, with 4 replicate wells for each concentration; • C) The cells were transferred to the incubator and incubated for 3 days.
# • A) Removed the cell culture plate and added 10 μl of CCK-8 (WST-8) solution per well in the biosafety cabinet. • B) Placed the cell culture plate back into the incubator and continued incubation for 3 hours. • C) Determined the absorbance value by selecting 450 nm on a TECAN enzyme-linked immunoassay detector.
# The cell viability (% Cell Viability) was calculated using the following formula.
# [formula] • A (dosing): absorbance of wells with cells, CCK8 solution and drug solution • A (blank): absorbance of wells with medium and CCK8 solution but no cells • A (0 dosing): absorbance of wells with cells, CCK8 solution and no drug solution • Cell viability: Cell proliferation viability or cytotoxicity viability IC50 values were obtained by curve fitting with GraphPad Prism 8 software.
# YAP-TEAD = assay: Nano luciferase method to detect YAP-TEAD inhibitor activity (293T cells transfected with pGL3B-8×GTiiC-nLuc-CMV-fLuc); format: cell-based; conditions: Homo sapiens, HEK-293T; transfected 293T cells, 48 hours incubation; read-out: Nano Luciferas detection (IC50)
# Text: Experimental Example 2 Nano Luciferase Method to Detect YAP-TEAD Inhibitor Activity
# (1) Experimental materials and equipment: 293T cells were purchased from Nanjing Cobioer Biosciences CO., LTD. DMEM medium (high sugar, phenol red free, Bio-Channel), DMSO (dimethyl sulfoxide), Lipo6000™ transfection reagent (Beyotime), pGL3B-8×GTiiC-nLuc-CMV-fLuc plasmid, 0.25% EDTA Tripsin (trypsin solution), 1×PBS (phosphate buffer, PH7.2), 96-well white cell culture plate (PerkinElmer), Fetal Bovine Serum (FBS), 10,000 U/mL penicillin-G/streptomycin, High-speed cryo-centrifuge (EPPENDORF 5810R), 37° C. CO^2 incubator, Vi-Cell® cell counter, Envision microplate reader (PerkinElmer).
# Resuscitated 293T cells were inoculated into 10 cm petri dishes and placed in a 5% CO^2 incubator at a constant temperature of 37° C. To ensure transfection efficiency, cells in the logarithmic phase (cell density of about 50%-70%) should be used.
# One day before transfection, cells in logarithmic phase were digested with Trypsin-EDTA, the reaction was terminated by adding medium, and the cell suspension was made by blowing and mixing with a pipette.
# The cell concentration was determined using Vi-cell and diluted to a suspension of 5*10^5 cells per milliliter. Once the cell suspension was prepared, it was gently mixed and 10 ml of liquid was added to a 10 cm petri dish. […] The cells were incubated in a 5% CO^2 incubator at 37° C. for 1 day.
# Take two clean and sterile centrifuge tubes, added 750 μL of opti-MEM Medium without antibiotics and serum respectively, then added […] of plasmid (pGL3B-8×GTiiC-nLuc-CMV-fLuc) to one of the tubes and gently blown with a pipette for mixing; the other tube was added with Lipo6000 transfection reagent and gently blown with a pipette for mixing. After standing at room temperature for 5 minutes, the culture medium containing DNA was gently added to the culture medium containing Lipo6000 transfection reagent, mixed by gently inverting the centrifuge tube, and stood at room temperature for 5 minutes.
# The above mixture was added evenly dropwise to a 10-cm petri dish and replaced with fresh complete medium after 6 h of incubation.
# After 1 day of transfection, Trypsin EDTA was used to digest the cells, medium was added to terminate the reaction, and a cell suspension was made by blowing and mixing with a pipette.
# Cell concentration was determined using Vi-cell, and diluted to a suspension of 20,000 cells per milliliter.
# After the cell suspension was prepared, it was gently mixed and 100 μL was added to each well in a 96-well plate so that the density of cells to be measured was 2000 per well.
# The inoculated cell culture plates were incubated in an incubator, and the compounds in concentration gradients were added after about 24 hours.
# The 10 mM compound reservoir solution was diluted to 50 μM with culture medium, and 50 μM compound solution was added sequentially to the third column of the deep-well plate, and 216 μL of culture medium containing 0.5% DMSO to the fourth to eleventh columns.
# Gradient dilution: 100 μL of solution was pipetted from the third column and added to the fourth column, after mixing; another 100 μL of solution was pipetted from the fourth column and added to the fifth column, and the operation was repeated until the eleventh column.
# Using a multichannel pipette, 25 μL of compound solution was pipetted from the deep-well plate and added to the 96-well culture plate, and each compound was repeated four times on the 96-well plate. A concentration gradient with a maximum concentration of 10,000 nM, 1:3.16, was eventually formed on the 96-well plate.
# The 96-well plate was incubated in a 5% CO^2 incubator at a constant temperature of 37° C. for 48 hours, then removed and equilibrated at room temperature for 10 minutes.
# 100 μL of detection reagent was added to each well and placed on a horizontal shaker at low speed for 10 minutes to fully lyse the cells. […]
# [2] = Pharmacokinetic study of the drug, oral administration to rats (plasma, cerebrospinal fluid, brain tissue); format: in vivo; conditions: SD rat, 10 mg/kg, single; for Kp: brain tissue (post perfusion) and plasma, read-out: B/P value; for Kp uu: in vivo, read-out: Kpuu Value; for AUC(0-inf) / AUC(0-t) / Cmax / MRT last / Tmax: plasma
# Text: Experimental Example 3 Pharmacokinetic Study of the Drug
# Oral Administration Solvent: 5% DMSO+10% Solutol HS15+85% Saline
# Oral administration preparation process: weighed the appropriate amount of powder, added the appropriate volume of DMSO, vortex, then added the appropriate volume of Solutol solution, vortex, and added the appropriate amount of saline, vortex ultrasound into a homogeneous and clarified state of the preparation solution.
# The animal room was equipped with an air-conditioning system and well ventilated, and the indoor temperature was maintained in the range of 20-26° C., and the humidity was maintained in the range of 40%-70%. The animal room was artificially illuminated with 12 hours of light and 12 hours of dark (except for the working light that needed to be turned on for experimental operation and cleaning), and the experimental animals were free to feed and drink.
# Animals were purchased and fed normally for at least 3 days, and rats that were examined by a veterinarian and had qualified physical conditions were enrolled in this experiment; each rat was labeled with a tail mark. Animals in the oral administration group were fasted overnight the day before administration, and resumed feeding and drinking freely 4 hours after administration.
# Before administration, checked the state of the administered preparation, ensured the homogeneity of the preparation by vortexing, stirring or oscillating, and calculated the theoretical volume of the administered drug for each SD rat in each group according to the following formula.
# Mode of administration: Oral administration to rats, fasted overnight prior to administration.
SMILES,IC50 [1] [nM],IC50 (YAP-TEAD) [nM],HL— [2] [h],Kp [2],Kp uu [2],AUC(0-inf) [2] [ng·h/mL],AUC(0-t) [2] [ng·h/mL],Cmax [2] [ng/mL],MRT last [2] [h],Tmax [2] [h]
C=CC(=O)N1CCC(c2cc(Cl)cnc2Oc2ccc(C(F)(F)F)cc2)CC1 [Compound T40],≤ 100,≤ 100,4.40,1.88,0.286,18000,17500,1650,6.75,1.67
C=CC(=O)N1CCC(c2nccnc2Oc2ccc(C(F)(F)F)cc2)CC1 [Compound T58],≤ 100,≤ 100,2.67,2.01,0.269,7560,7540,1180,5.81,2
C=CC(=O)N1CCC(c2cc(-c3cnn(C)c3)cnc2Nc2ccc(C(F)(F)F)cc2)CC1 [Compound T61],1000 to 5000,≤ 100,2.95,0.56,0.038,13200,10800,1960,3.49,2.67
C=CC(=O)N1CCC(c2cccnc2Nc2ccc(C(F)(F)F)cc2)CC1 [Compound T1],≤ 100,≤ 100,1.93,–,–,5260,5250,919,4.28,1.33
C=CC(=O)N1CCC(c2cccnc2Oc2ccc(C(F)(F)F)cc2)CC1 [Compound T59],≤ 100,≤ 100,2.66,1.22,0.765,3920,3910,679,4.6,1.5
C=CC(=O)N1CCC(c2cc(-c3cc[nH]n3)cnc2Nc2ccc(C(F)(F)F)cc2)CC1 [Compound T92],100 to 1000,≤ 100,1.59,–,–,4830,4770,901,3.8,2.67
C=CC(=O)N1CCC(c2cc(C)cnc2Nc2ccc(C(F)(F)F)cc2)CC1 [Compound T22],≤ 100,≤ 100,2.64,–,–,3500,3290,594,3.97,2
C=CC(=O)N1CCC(c2c(Nc3ccc(C(F)(F)F)cc3)ncc3ccccc23)CC1 [Compound T37],100 to 1000,100 to 1000,13.97,–,–,18000,12300,804,9.85,4.67
C=CC(=O)N1CCC(c2nccnc2Nc2ccc(C(F)(F)F)cc2)CC1 [Compound T16],≤ 100,≤ 100,2.07,1.41,0.518,17400,17300,2840,4.48,2.67
C=CC(=O)N1CCC(c2ccc(Cl)nc2Nc2ccc(C(F)(F)F)cc2)CC1 [Compound T27],100 to 1000,≤ 100,3.03,–,–,19600,19400,1880,6.89,3.33

# From patent US20260152480A1, “POLYCYCLIC COMPOUND AND USE THEREOF” (TYK MEDICINES , INC., priority 2022, published 2026)
